US12129493B2, “Host cells and methods useful for producing unnatural terpenoids using a novel artificial metalloenzyme” (The Regents of the University of California, priority 2020, dated 2024)
“And” between values parts separate entries of the source, which are not always exact repeats. Identical values can stand only once. “Also recorded” adds a separate entry of the source.

How the values were obtained:
BL21(DE3) cells = test: Cytotoxicity of Ir(Me)MPIX and cyclopropyl limonene, cell growth by OD600; conditions: for inhibition of cell growth: concentration range relevant for the study
Experimental: 10. […] Individual colonies from freshly transformed plates (incubated at 30° C.) were inoculated into 2 mL M9-rich media supplemented with appropriate antibiotics. A 1:100 dilution of overnight cultures into 300 μL M9-rich media was performed in a 48-well plate. […] The OD600 values were recorded by a plate reader (F200 or F200pro, Tecan) set at 30° C.
Cyclopropyl limonene; BL21(DE3) cells co-transformed with pHug21 (coding for HUG system) and pJHA110 (coding for CYP119 mutant) were grown and cultivated as described above. The stock solution of cyclopropyl limonene in ethanol was added to the cell culture to give final concentration of 0, 0.2, 1, 5, 25 mg/L cyclopropyl limonene and 1% (v/v) ethanol. The OD600 values were recorded by a plate reader (F200 or F200pro, Tecan) set at 30° C.

[1] = system: E. coli cells expressing limonene biosynthetic pathway; test: Effect of Ir(Me)MPIX addition on limonene titer; type: cell-based; conditions: 0.1 μM Ir(Me)MPIX in DMSO
Experimental: 6. Limonene biosynthesis. Chemically competent BL21(DE3) (NEB) cells were transformed with a plasmid coding for MEV pathway enzymes to produce limonene from glucose in E. coli (pJBEI6410 or pJBEI6409). […] The cultures were grown overnight at 30° C. and 200 rpm for 18 h. In a 50 mL glass culture tube, 10 mL of M9-rich media was inoculated with 100 μL of overnight starter culture and incubated at 37° C. and 200 rpm to an OD600 of ˜1. Unless otherwise indicated, the cultures were then induced by adding 50 μM IPTG (final concentration), and 10% (v/v) dodecane was added to trap the limonene produced. Upon induction, the temperature was reduced to 30° C. and expressions were allowed to continue for 24 h at 200 rpm. An aliquot of the 100 μL dodecane overlay was diluted with 900 μL ethyl acetate containing 40 mg/L beta-pinene (beta-pinene as internal standard) and analyzed by GC-MS.

[2] = target: T1, Sulfolobus CYP119 (cytochrome P450 119, parent sequence SEQ ID NO: 1), apo form, CYP119-141 mutant (C317G, T213G, V254L, L155W) (Sulfolobus acidocaldarius, UniProt Q55080, C317G/L155W/T213G/V254L); test: Binding affinity of apo-CYP119 towards Ir(Me)MPIX/hemin (intrinsic fluorescence quenching, Benesi-Hildebrand); design: species or system Sulfolobus solfataricus; conditions: excitation 294 nm, 10 mM TRIS buffer pH 8.0, Benesi-Hildebrand analysis
T1 construct: made in house
Experimental: Intrinsic fluorescence quenching;^8 Modified from a reported procedure, aliquots (10 μL) of metalloporphyrin stock solutions (in DMSO) were added to a solution containing 0.15 mg/L apo-CYP119 (CYP119-141 mutant, 800 μL, 10 mM TRIS buffer, pH 8.0). This addition caused the concentration of the protein to decrease from its initial value to a final concentration of 0.148 mg/L in the process. After each addition, the emission spectrum of CYP119 was recorded upon excitation at 294 nm. In quenching experiments, the concentration of the chromophore (CYP119 or porphyrin) was kept sufficiently low (<0.15) to ensure uniform light absorption throughout the sample and reduced inner filter effects. The fluorescence emission intensity was calculated as the integral of the emission spectrum in the recorded wavelength range (305-450 nm).

E. coli BL21(DE3) cells = test: Evaluation of the effect of Ir(Me)MPIX and cyclopropyl limonene on cell growth (OD600); type: cell-based, Escherichia coli; conditions: 30° C.
[3] = type: cell-based, E. coli; conditions: whole cells harboring Ir-CYP119 mutants, average of three biological repeats
[4] = Cyclopropanation of (−)-limonene by Ir-CYP119 reconstituted in vitro or free cofactor; type: biochemical; conditions: Ir-CYP119 mutants reconstituted in vitro, average of two replicates
Experimental: 12. […] The buffer of the protein solution was subsequently exchanged to TRIS buffer (20 mM, pH 7.5) using a NAP-10 column (GE Healthcare). […] To the reaction vial, 10 μL of 0.125 M stock solution of limonene in EtOH was added. The reaction vial was sealed with a cap containing a septum. The syringes of a multichannel syringe pump were loaded with a stock solution of EDA in DMSO (20 μL of 0.25 M solution of EDA in DMSO), and the EDA solution was added to the reaction over 1.5 h. The reaction was quenched upon the conclusion of the addition of EDA by adding 100 μL of 2 N HCl and extracted with 1 mL dodecane stock solution (0.1% (v/v) in ethyl acetate). The organic layer was then transferred to a separate vial for GC analysis.

CYP119 [5] = target: T2, CYP119 (Sulfolobus acidocaldarius, UniProt Q55080, C317G/L155W/T213G/V254L); test: ICP-MS measurement of CYP119 purified from E. coli co-expressing heme transport system (100 mL culture); type: cell-based; conditions: 0.1 μM Ir(Me)MPIX, single replicates
T2 construct: made in house; host or cells: E. coli BL21(DE3), co-transformed with pHug21 (HUG) or pBbS5a (RFP control)
Experimental: (§1) (b) Protein purification (100 mL culture); A plasmid containing CYP119 mutant (pJHA110) was co-transformed with a plasmid (pHug21) encoding the heme transport system HUG, or an empty vector backbone (pBbS5a) into chemically competent BL21(DE3) (NEB) cells. Individual colonies from freshly transformed plates were inoculated into 4 mL M9-rich media supplemented with 100 μg/mL carbenicillin and 25 μg/mL kanamycin. The cultures were grown overnight at 37° C. and 200 rpm. In a 500 mL Erlenmeyer flask, 100 mL of M9-rich media was inoculated with 1 mL of overnight starter culture and incubated at 37° C. and 200 rpm to an OD600 of 0.7˜0.8. […] Upon induction, the incubation temperature was reduced to 30° C., and expressions were allowed to continue for 18 h at 200 rpm. Cells were harvested by centrifugation and stored at −20° C. until purification.
(§2) Cell debris was removed by centrifugation (10000 rpm, 45 min, 4° C.). The supernatants were incubated with Ni-NTA agarose (50% suspension, 4 mL) on a tube rotator (15 min, 4° C., 20 rpm) and poured into glass frits (coarse, 50 mL). The resin was washed (3×35 mL) with Ni-NTA lysis buffer (50 mM NaPi, 250 mM NaCl, 10 mM Imidazole, pH 8.0). The desired protein was eluded with 15 mL Ni-NTA elusion buffer (50 mM NaPi, 250 mM NaCl, 250 mM Imidazole, pH 8.0) and concentrated to 1 mL with a 30 kDa molecular weight cut-off Amicon centrifugal filtration device (EMD Millipore).
(§3) (c) ICP-MS analysis; Cone. HNO3 was added to each sample (1 mL) in to make a final concentration of 4% (v/v). After microwave digestion (140° C., 30 min), the samples were analyzed by ICP-MS (Elemental Analysis Core, Oregon Health & Science University).

CYP119 [6] = target: T2, CYP119; test: Fe and Ir content of CYP119 purified from HUG/CYP119 E. coli (700 mL culture); type: cell-based; conditions: 0.2 mg/L Ir(Me)MPIX
Experimental: as §1, with “(b) Protein purification (100 mL culture); A plasmid containing CYP119 mutant (pJHA110) was co-transformed with a plasmid (pHug21) encoding the heme transport system HUG, or an empty vector backbone (pBbS5a) into chemically competent BL21(DE3) (NEB) cells.” left out
as §2, §3

[7] = 0, 0.1, 1, 10 μM Ir(Me)MPIX, M9-rich media

CCC1=C(C)c2cc3[n-]c(cc4[n-]c(cc5nc(cc1n2)C(C)=C5CC)c(C)c4CCC(=O)O)c(CCC(=O)O)c3C.[CH3-].[Ir+3] [Ir(Me)MPIX]
effect on cell growth (BL21(DE3) cells; BL21(DE3) expressing the HUG system, 0-10 μM): little effect
effect on cell growth (BL21(DE3) cells; BL21(DE3) with empty vector pBbS5K, 0-10 μM): little effect
inhibition of cell growth (BL21(DE3) cells): did not inhibit cell growth
effect on limonene titer [1]: unaffected; also recorded: little impact
Kb [2]: 4.2(0.3) × 10^5 M^−1
Kd ([2]; read-out: Kd): 2400 nM
effect on growth of BL21(DE3) cells expressing the HUG system (E. coli BL21(DE3) cells; [7]): little effect on the growth
effect on growth of BL21(DE3) cells transformed with an empty vector pBbS5K (E. coli BL21(DE3) cells; [7]): little effect on the growth

CCOC(=O)[C@H]1C[C@@]1(C)[C@@H]1CC=C(C)CC1 [cyclopropyl limonene]
effect on cell growth (BL21(DE3) cells; BL21(DE3) with pHug21 and pJHA110, 0-25 mg/L): little effect
inhibition of cell growth (BL21(DE3) cells): did not inhibit cell growth
effect on growth of BL21(DE3) cells co-transformed with pHug21 and pJHA110 (encoding CYP119) (E. coli BL21(DE3) cells; 0, 0.2, 1, 5, 25 mg/L cyclopropyl limonene, 1% (v/v) ethanol): little effect on the growth

B1: P/256W: CYP119 mutant (C317G, T213G, V254L, L155W, R256W) (protein, UniProt Q55080 1-368, looked up, variant C317G T213G V254L L155W R256W)
Cytochrome P450 119: MYDWFSEMRKKDPVYYDGNIWQVFSYRYTKEVLNNFSKFSSDLTGYHERLEDLRNGKIRFDIPTRYTMLTSDPPLHDELRSMSADIFSPQKLQTLETFIRETTRSLLDSIDPREDDIVKKLAVPLPIIVISKILGLPIEDKEKFKEWSDLVAFRWGKPGEIFELGKKYLELIGYVKDHLNSGTEVVSRVVNSNLSDIEKLGYIILLLIAGNEGTTNLISNSVIDFTRFNLWQRIREENLYLKAIEEALRYSPPLMWTVRKTKERVKLGDQTIEEGEYVRVWIASANRDEEVFHDGEKFIPDRNPNPHLSFGSGIHLGLGAPLARLEARIAIEEFSKRFRHIEILDTEKVPNEVLNGYKRLVVRLKSNE
in vivo diastereoselectivity (P2/Ptotal) [3]: 63%
in vitro diastereoselectivity (P2/Ptotal) [4]: 48%

B2: RFP/CYP119: CYP119 purified from E. coli transformed with pBbS5a (RFP control) and pJHA110 (protein, UniProt Q55080 1-368, looked up)
Cytochrome P450 119: MYDWFSEMRKKDPVYYDGNIWQVFSYRYTKEVLNNFSKFSSDLTGYHERLEDLRNGKIRFDIPTRYTMLTSDPPLHDELRSMSADIFSPQKLQTLETFIRETTRSLLDSIDPREDDIVKKLAVPLPIIVISKILGLPIEDKEKFKEWSDLVAFRLGKPGEIFELGKKYLELIGYVKDHLNSGTEVVSRVVNSNLSDIEKLGYIILLLIAGNETTTNLISNSVIDFTRFNLWQRIREENLYLKAIEEALRYSPPVMRTVRKTKERVKLGDQTIEEGEYVRVWIASANRDEEVFHDGEKFIPDRNPNPHLSFGSGIHLCLGAPLARLEARIAIEEFSKRFRHIEILDTEKVPNEVLNGYKRLVVRLKSNE
Ir, total amount present in the purified protein (CYP119 [5]): 0.66 nmol and 0.59 nmol and 0.62 nmol

B3: P (C317G, T213G, V254L, L155W): parent CYP119 mutant (C317G, T213G, V254L, L155W) (protein)
chain: MYDWFSEMRKKDPVYYDGNIWQVFSYRYTKEVLNNFSKFSSDLTGYHERLEDLRNGKIRFDIPTRYTMLTSDPPLHDELRSMSADIFSPQKLQTLETFIRETTRSLLDSIDPREDDIVKKLAVPLPIIVISKILGLPIEDKEKFKEWSDLVAFRWGKPGEIFELGKKYLELIGYVKDHLNSGTEVVSRVVNSNLSDIEKLGYIILLLIAGNEGTTNLISNSVIDFTRFNLWQRIREENLYLKAIEEALRYSPPLMRTVRKTKERVKLGDQTIEEGEYVRVWIASANRDEEVFHDGEKFIPDRNPNPHLSFGSGIHLGLGAPLARLEARIAIEEFSKRFRHIEILDTEKVPNEVLNGYKRLVVRLKSNE
in vivo diastereoselectivity (P2/Ptotal) [3]: 53%
in vitro diastereoselectivity (P2/Ptotal) [4]: 20%

B4: ChuA/Ton/CYP119: CYP119 purified from E. coli transformed with pJHA184 (ChuA and Ton complex) and pJHA110 (protein, UniProt Q55080 1-368, looked up)
Cytochrome P450 119: MYDWFSEMRKKDPVYYDGNIWQVFSYRYTKEVLNNFSKFSSDLTGYHERLEDLRNGKIRFDIPTRYTMLTSDPPLHDELRSMSADIFSPQKLQTLETFIRETTRSLLDSIDPREDDIVKKLAVPLPIIVISKILGLPIEDKEKFKEWSDLVAFRLGKPGEIFELGKKYLELIGYVKDHLNSGTEVVSRVVNSNLSDIEKLGYIILLLIAGNETTTNLISNSVIDFTRFNLWQRIREENLYLKAIEEALRYSPPVMRTVRKTKERVKLGDQTIEEGEYVRVWIASANRDEEVFHDGEKFIPDRNPNPHLSFGSGIHLCLGAPLARLEARIAIEEFSKRFRHIEILDTEKVPNEVLNGYKRLVVRLKSNE
Ir, total amount present in the purified protein (CYP119 [5]): 0.83 nmol and 0.69 nmol and 0.87 nmol

B5: HUG/CYP119: CYP119 purified from E. coli transformed with pHug21 (HUG system) and pJHA110 (protein, UniProt Q55080 1-368, looked up)
Cytochrome P450 119: MYDWFSEMRKKDPVYYDGNIWQVFSYRYTKEVLNNFSKFSSDLTGYHERLEDLRNGKIRFDIPTRYTMLTSDPPLHDELRSMSADIFSPQKLQTLETFIRETTRSLLDSIDPREDDIVKKLAVPLPIIVISKILGLPIEDKEKFKEWSDLVAFRLGKPGEIFELGKKYLELIGYVKDHLNSGTEVVSRVVNSNLSDIEKLGYIILLLIAGNETTTNLISNSVIDFTRFNLWQRIREENLYLKAIEEALRYSPPVMRTVRKTKERVKLGDQTIEEGEYVRVWIASANRDEEVFHDGEKFIPDRNPNPHLSFGSGIHLCLGAPLARLEARIAIEEFSKRFRHIEILDTEKVPNEVLNGYKRLVVRLKSNE
Ir, total amount present in the purified protein (CYP119 [5]): 3.15 nmol and 3.66 nmol and 3.08 nmol
Fe, total amount present in the purified protein (CYP119 [6]): 0.044 µmol and 0.031 µmol and 0.035 µmol
Fe:CYP119 (molar ratio) (CYP119 [6]): 12.4% and 8.5% and 9.1%
Ir, total amount present in the purified protein (CYP119 [6]): 0.039 µmol and 0.040 µmol and 0.041 µmol
Ir:CYP119 (molar ratio) (CYP119 [6]): 11.0% and 11.1% and 10.8%
